Like-named read-outs stand apart in the source and are kept apart here.

In US9550763B2, “Heterocyclic ring and carbocyclic derivative” (Shionogi & Co., Ltd., priority 2012, dated 2017) one finds IC50 data, which are given here for 24 compounds.

The assay deals with human P2X3 receptor (Homo sapiens (Human), UniProt P56373). Briefly: Evaluation of human P2X3 receptor inhibitory activity (Test Example 1-2, FLIPR 384, 384-well, 150 nM ATP). It counts as cell-based. The essentials:
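Human P2X3 stably expressed in C6BU-1 cells, Fluo-3-AM loaded, read on FLIPR at pH 7.5 HEPES buffer. Compound added 5 min before 150 nM ATP; peak/baseline fluorescence over 4 min gave inhibition (buffer instead of ATP = 100%), from which IC50 was derived.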

Setting [1] is: human P2X3 receptor in C6BU-1 cells, Test Example 1-2 (compounds I-301 to I-483), read-out: P2X3 IC50.
Where [2] appears, read: C6BU-1 cell transfected with human P2X3 receptor gene, method of Test Example 1-2 (compounds I-301 to I-483), read-out: IC50 (human P2X3 receptor inhibitory activity).

human P2X3 receptor, sequence (P56373 whole entry): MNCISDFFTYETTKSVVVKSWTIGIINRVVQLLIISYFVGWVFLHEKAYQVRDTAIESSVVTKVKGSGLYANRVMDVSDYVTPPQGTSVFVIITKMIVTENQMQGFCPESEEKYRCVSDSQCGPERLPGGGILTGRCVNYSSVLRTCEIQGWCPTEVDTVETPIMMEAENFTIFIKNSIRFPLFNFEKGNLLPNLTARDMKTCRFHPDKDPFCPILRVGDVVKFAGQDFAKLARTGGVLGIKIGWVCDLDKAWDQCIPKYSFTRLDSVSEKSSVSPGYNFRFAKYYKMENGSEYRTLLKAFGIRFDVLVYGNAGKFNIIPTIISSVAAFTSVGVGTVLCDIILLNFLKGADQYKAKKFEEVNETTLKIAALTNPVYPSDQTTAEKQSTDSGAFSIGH

Turning to `O=C(Nc1c[nH]/c(=N\c2ccc(Oc3ccc(C(F)(F)F)nn3)cc2)n(Cc2ccc(Cl)cc2)c1=O)C1CCOCC1` [Compound I-435], the IC50 under setting [1] turned out to be 3 nM.

Regarding `CCCc1c[nH]/c(=N\c2ccc(Oc3cccc(C(=O)O)n3)cc2)n(Cc2ccc(Cl)cc2)c1=O` [Compound I-436], under setting [1], the half-maximal inhibitory concentration (IC50) amounted to 13 nM.

As to `CCOC(=O)c1noc(-c2c[nH]/c(=N\c3ccc(Oc4ccon4)cc3)n(Cc3ccc(Cl)cc3)c2=O)n1` [Compound I-437], the 50% inhibitory concentration (IC50) under setting [1] was 124 nM.

Regarding `COC(=O)c1nnc(-c2c[nH]/c(=N\c3ccc(Oc4ccon4)cc3)n(Cc3ccc(Cl)cc3)c2=O)o1` [Compound I-438], under setting [1], the IC50 came out at 109 nM.

For the compound `O=c1c(-c2nnco2)c[nH]/c(=N\c2ccc(Oc3ccon3)cc2)n1Cc1ccc(Cl)cc1` [Compound I-439], the concentration for half-maximal inhibition (IC50) under setting [1] is 47 nM.

Turning to `O=C(O)c1cccc(Oc2ccc(/N=c3\[nH]cc(Br)c(=O)n3Cc3ccc(Cl)cc3)cc2)n1` [Compound I-440], under setting [1], the half-maximal inhibitory concentration (IC50) was found to be 15 nM.

For the compound `NC(=O)c1noc(-c2c[nH]/c(=N\c3ccc(Oc4ccon4)cc3)n(Cc3ccc(Cl)cc3)c2=O)n1` [Compound I-441], under setting [1], the IC50 stood at 69 nM.

For `CNC(=O)c1noc(-c2c[nH]/c(=N\c3ccc(Oc4ccon4)cc3)n(Cc3ccc(Cl)cc3)c2=O)n1` [Compound I-442], the IC50 under setting [1] worked out at 80 nM.

With `C[C@@H](NC(=O)c1cn(Cc2ccc(Cl)cc2)c(Nc2ccc(Oc3cccc(F)n3)cc2)nc1=O)C(N)=O` [Compound I-443], the IC50 under setting [1] is 36 nM.

On to `COC(=O)C(C)(C)Cn1c(=O)cc(Nc2ccc(Oc3ccc(F)cn3)c(C)n2)n(C[C@H]2CC[C@H](C)CC2)c1=O` [Compound I-444], for which, under setting [1], the IC50 worked out at 9 nM.

For the compound `Cc1nc(Nc2cc(=O)n(CC(C)(C)C(=O)O)c(=O)n2C[C@H]2CC[C@H](C)CC2)ccc1Oc1ccc(F)cn1` [Compound I-445], the IC50 under setting [1] stood at 7 nM.

With `COC(=O)[C@H](CO)NC(=O)c1c[nH]/c(=N\c2ccc(Oc3ccon3)cc2)n(Cc2ccc(Cl)cc2)c1=O` [Compound I-446], the IC50 under setting [1] turned out to be 47 nM.

For `O=c1cc[nH]/c(=N\c2ccc(Oc3ccon3)cc2)n1Cc1ccc(Cl)cc1` [Compound I-447], under setting [2], the IC50 was less than 30000 nM.

With `O=C(O)c1cccc(Oc2ccc(/N=c3\[nH]ccc(=O)n3Cc3ccc(Cl)cc3)cc2)n1` [Compound I-448], the IC50 under setting [2] is less than 30000 nM.

On to `O=c1c(-c2ncno2)c[nH]/c(=N\c2ccc(Oc3ccon3)cc2)n1Cc1ccc(Cl)cc1` [Compound I-449], for which the IC50 under setting [1] came to 179 nM.

Consider `C=CCNC(=O)c1c[nH]/c(=N\c2ccc(Oc3ccon3)cc2)n(Cc2ccc(Cl)cc2)c1=O` [Compound I-450], for which the IC50 under setting [1] turned out to be 21 nM.

`O=C(NCc1ccccc1)c1c[nH]/c(=N\c2ccc(Oc3ccon3)cc2)n(Cc2ccc(Cl)cc2)c1=O` [Compound I-451]: under setting [1], the half-inhibitory concentration (IC50) is 104 nM.

With `O=C(NCC(F)(F)F)c1c[nH]/c(=N\c2ccc(Oc3ccon3)cc2)n(Cc2ccc(Cl)cc2)c1=O` [Compound I-452], the 50% inhibitory concentration (IC50) under setting [1] came out at 98 nM.

Take `O=C(O)c1coc(-c2c[nH]/c(=N\c3ccc(Oc4ccon4)cc3)n(Cc3ccc(Cl)cc3)c2=O)n1` [Compound I-454]: the IC50 under setting [1] came to 160 nM.

`O=C(O)c1cccc(Oc2ccc(Nc3nc4ccccc4n3Cc3ccc(Cl)cc3)cc2)n1` [Compound I-455]: under setting [2], the IC50 is less than 30000 nM.

As for `CCn1c(=O)[nH]c(Nc2ccc(Oc3cccc(C#N)n3)cc2)c(Cc2ccc(Cl)cc2)c1=O` [Compound I-456, 5-(4-chlorobenzyl)-6-[4-(6-cyano-2-pyridyloxy)phenylamino]-3-ethylpyrimidin-2,4(1H,3H)-dione], the IC50 under setting [1] stood at 9 nM.

With `CCn1c(=O)[nH]c(Nc2ccc(Oc3cccc(C(=O)O)n3)cc2)c(Cc2ccc(Cl)cc2)c1=O` [Compound I-457], the IC50 under setting [1] was 9 nM.

Regarding `CCn1c(=O)[nH]c(Nc2ccc(Oc3cccc(C(N)=O)n3)cc2)c(Cc2ccc(Cl)cc2)c1=O` [Compound I-458], under setting [1], the IC50 came to 15 nM.

For the compound `O=C(O)c1cn(Cc2ccc(Cl)cc2)c2cc(Nc3ccc(Oc4ccc(F)cn4)cc3)ccc2c1=O` [Compound I-461], under setting [2], the IC50 was less than 30000 nM.
